Assay [1] has as its system Staphylococcus aureus. Put plainly: Antibacterial activity against Staphylococcus aureus SMH36633 by broth dilution method.
Assay [2] has as its system Staphylococcus aureus. Put plainly: Antibacterial activity against Staphylococcus aureus SMH37099 by broth dilution method.
The subject of assay [3] is Staphylococcus aureus. Put plainly: Antibacterial activity against Staphylococcus aureus SMH37312 by broth dilution method. For orientation: In broth dilution the organism is exposed to a series of concentrations in liquid medium.
For assay [4], the system named is Staphylococcus aureus. As to the kind of experiment: Antibacterial activity against Staphylococcus aureus SMH37390 by broth dilution method. The assay is classed as functional.
For assay [5], the system named is Staphylococcus aureus. As to the kind of experiment: Antibacterial activity against Staphylococcus aureus SMH38004 by broth dilution method. The assay is classed as functional.
The test system of assay [6] is Staphylococcus aureus. Put plainly: Antibacterial activity against Staphylococcus aureus SMH37276 by broth dilution method. The class given is functional.
The test system of assay [7] is Staphylococcus aureus. As to the kind of experiment: Antibacterial activity against Staphylococcus aureus SMH36742 by broth dilution method.
The test system of assay [8] is Staphylococcus aureus. As to the kind of experiment: Antibacterial activity against Staphylococcus aureus SMH36945 by broth dilution method.

What is called MIC is the least concentration at which growth counts as inhibited. A low value points to greater potency.

Values after ≈ are worked out from the molar mass of the structure shown.

With `COc1c(N2C[C@@H]3CCCN[C@@H]3C2)c(F)cc2c(=O)c(C(=O)O)cn(C3CC3)c12` [MOXIFLOXACIN], the MIC is 0.03 µg/mL (≈ 0.0747 µM) in the assay on Staphylococcus aureus [1]; 0.03 µg/mL (≈ 0.0747 µM) in the assay on Staphylococcus aureus [2]; 0.03 µg/mL (≈ 0.0747 µM) with Staphylococcus aureus [3]; 0.04 µg/mL (≈ 0.0996 µM) with Staphylococcus aureus [4]; 0.09 µg/mL (≈ 0.224 µM) in the assay on Staphylococcus aureus [5]; 0.7 µg/mL (≈ 1.74 µM) in the assay with Staphylococcus aureus [6]. Besides, the MIC in the assay with Staphylococcus aureus [7] turned out to be 1 µg/mL (≈ 2.49 µM); in the assay on Staphylococcus aureus [8], 2 µg/mL (≈ 4.98 µM).

The values above are taken from ChEMBL document CHEMBL1649300, “Bacterial strain-to-strain variation in pharmacodynamic index magnitude, a hitherto unconsidered factor in establishing antibiotic clinical breakpoints” (2009).
